Columns and labels:
HCV replicon cells = experiment: HCV replicon FRET / luciferase assay; assay type: cell-based; conditions: Hepatitis C virus, 50% reduction in FRET or luciferase activity in HCV replicon cells; read-out: EC50
Protocol: FRET Assay Preparation. The HCV FRET screening assay was performed in 96-well cell culture plates. The FRET peptide (Anaspec, Inc.) (Taliani et al., Anal. Biochem. 1996, 240, 60-67) contains a fluorescence donor, EDANS, near one end of the peptide and an acceptor, DABCYL, near the other end. The fluorescence of the peptide is quenched by […] resonance energy transfer (RET) between the donor and the acceptor, but as the NS3 protease cleaves the peptide the products are released from RET quenching and the fluorescence of the donor becomes apparent. The assay reagent was made as follows: 5× cell Luciferase cell culture lysis reagent from Promega (#E153A) diluted to 1× with dH2O, NaCl added to 150 mM final, the FRET peptide diluted to 20 μM final from a 2 mM stock.
To prepare plates, HCV replicon cells, with or without a Renilla luciferase reporter gene, were trypsinized and plated in a 96-well plate with titrated test compounds added in columns 3 through 12; columns 1 and 2 contained a control compound (HCV control inhibitor), and the bottom row contained cells with DMSO only. The plates were then placed in a CO2 incubator at 37° C.
Assays. Subsequent to addition of the test compounds described above (FRET Assay Preparation), at various times the plate was removed and Alamar blue solution (Trek Diagnostics, #00-100) was added to measure cellular toxicity. After reading in a Cytoflour 4000 instrument (PE Biosystems), plates were rinsed with PBS and then used for FRET assay by the addition of 30 ul of the FRET peptide assay reagent described above (FRET Assay Preparation) per well. The plate was then placed into the Cytoflour 4000 instrument which had been set to 340 excite/490 emission, automatic mode for up to 20 cycles and the plate read in a kinetic mode. Typically, the signal to noise using an endpoint analysis after the reads was at least three-fold. Alternatively, after Alamar blue reading, plates were rinsed with PBS, then used for luciferase assay using the Promega Dual-Glo Luciferase Assay System or the Promega EnduRen Live Cell Substrate assay.
Compound analysis was performed by quantification of the relative HCV replicon inhibition and the relative cytotoxicity values. To calculate cytoxicity values, the average Alamar Blue fluorescence signals from the control wells were set as 100% non-toxic. The individual signals in each of the compound test wells were then divided by the average control signal and multiplied by 100% to determine […]. To calculate the HCV replicon inhibition values, an average background value was obtained from the two wells containing the highest amount of HCV control inhibitor at the end of the assay period. These numbers were similar to those obtained from naïve Huh-7 cells. The background numbers were then subtracted from the average signal obtained from the control wells and this number was used as 100% activity. The individual signals in each of the compound test wells were then divided by the averaged control values after background subtraction and multiplied by 100% to determine percent activity. EC50 values were calculated as the concentration which caused a 50% reduction in FRET or luciferase activity. The two numbers generated for the compound plate, percent cytoxicity and percent activity, were used to determine compounds of interest for further analysis.

HCV NS5B = target: T1, HCV NS5B (Hepatitis C virus genotype 1b, UniProt Q9WMX2); experiment: HCV NS5B RdRp enzyme assay (standard / modified); assay type: biochemical; conditions: HCV RdRp genotype 1b; standard or modified assay not specified; read-out: IC50
T1 construct: The protein was expressed with an 18 amino acid C-terminal truncation to enhance the solubility; made in house; host or cells: E. coli BL21(DE3)
Protocol: HCV NS5B RdRp cloning, expression, and purification. The cDNA encoding the NS5B protein of HCV, genotype 1b, was cloned into the pET21a expression vector. The protein was expressed with an 18 amino acid C-terminal truncation to enhance the solubility. The E. coli competent cell line BL21(DE3) was used for expression of the protein. Cultures were grown at 37° C. for ˜4 hours until the cultures reached an optical density of 2.0 at 600 nm. The cultures were cooled to 20° C. and induced with 1 mM IPTG. Fresh ampicillin was added to a final concentration of 50 μg/ml and the cells were grown overnight at 20° C.
Cell pellets (3 L) were lysed for purification to yield 15-24 mgs of purified NS5B. The lysis buffer consisted of 20 mM Tris-HCl, pH 7.4, 500 mM NaCl, 0.5% triton X-100, 1 mM DTT, 1 mM EDTA, 20% glycerol, 0.5 mg/ml lysozyme, 10 mM MgCl2, 15 ug/ml deoxyribonuclease I, and Complete TM protease inhibitor tablets (Roche). After addition of the lysis buffer, frozen cell pellets were resuspended using a tissue homogenizer. To reduce the viscosity of the sample, aliquots of the lysate were sonicated on ice using a microtip attached to a Branson sonicator. The sonicated lysate was centrifuged at 100,000×g for 1 hr at 4° C. and filtered through a 0.2 μm filter unit (Corning).
The protein was purified using two sequential chromatography steps: Heparin sepharose CL-6B and polyU sepharose 4B (Pharmacia). The chromatography buffers were identical to the lysis buffer but contained no lysozyme, deoxyribonuclease I, MgCl2 or protease inhibitor and the NaCl concentration of the buffer was adjusted according to the requirements for charging the protein onto the column. Each column was eluted with a NaCl gradient which varied in length from 5-50 column volumes depending on the column type. After the final chromatography step, the resulting purity of the enzyme is >90% based on SDS-PAGE analysis. The enzyme was aliquoted and stored at −80° C.
Standard HCV NS5B RdRp enzyme assay. HCV RdRp genotype 1b assays were run in a final volume of 60 μl in 96 well plates (Corning 3600). The assay buffer is composed of 20 mM Hepes, pH 7.5, 2.5 mM KCl, 2.5 mM MgCl2, 1 mM DTT, 1.6 U RNAse inhibitor (Promega N2515), 0.01 mg/ml BSA (Sigma B6917), and 2% glycerol. All compounds were serially diluted (3-fold) in DMSO and diluted further in water such that the final concentration of DMSO in the assay was 2%. HCV RdRp genotype 1b enzyme was used at a final concentration of 28 nM. A polyA template was used at 6 nM, and a biotinylated oligo-dT12 primer was used at 180 nM final concentration. Template was obtained commercially (Amersham 27-4110). Biotinylated primer was prepared by Sigma Genosys. 3H-UTP was used at 0.6 μCi (0.29 μM total UTP). Reactions were initiated by the addition of enzyme, incubated at 30 ° C. for 60 min, and stopped by adding 25 μl of 50 mM EDTA containing SPA beads (4 μg/μl, Amersham RPNQ 0007). Plates were read on a Packard Top Count NXT after >1 hr incubation at room temperature.
Modified HCV NS5B RdRp enzyme assay. A modified enzyme assay was performed essentially as described for the standard enzyme assay except for the following: The biotinylated oligo dT12 primer was precaptured on streptavidin-coated SPA beads by mixing primer and beads in assay buffer and incubating at room temperature for one hour. Unbound primer was removed after centrifugation. The primer-bound beads were resuspended in 20 mM Hepes buffer, pH 7.5 and used in the assay at final concentrations of 20 nM primer and 0.67 μg/μl beads. Order of addition in the assay: enzyme (1.75 nM) was added to diluted compound followed by the addition of a mixture of template (0.36 nM), 3H-UTP (0.6 μCi, 0.29 μM), and primer-bound beads, to initiate the reaction; concentrations given are final. Reactions were allowed to proceed for 4 hours at 30° C.
IC50 values for compounds were determined using seven different [I]. […]

T1 sequence (Q9WMX2 2420-2992): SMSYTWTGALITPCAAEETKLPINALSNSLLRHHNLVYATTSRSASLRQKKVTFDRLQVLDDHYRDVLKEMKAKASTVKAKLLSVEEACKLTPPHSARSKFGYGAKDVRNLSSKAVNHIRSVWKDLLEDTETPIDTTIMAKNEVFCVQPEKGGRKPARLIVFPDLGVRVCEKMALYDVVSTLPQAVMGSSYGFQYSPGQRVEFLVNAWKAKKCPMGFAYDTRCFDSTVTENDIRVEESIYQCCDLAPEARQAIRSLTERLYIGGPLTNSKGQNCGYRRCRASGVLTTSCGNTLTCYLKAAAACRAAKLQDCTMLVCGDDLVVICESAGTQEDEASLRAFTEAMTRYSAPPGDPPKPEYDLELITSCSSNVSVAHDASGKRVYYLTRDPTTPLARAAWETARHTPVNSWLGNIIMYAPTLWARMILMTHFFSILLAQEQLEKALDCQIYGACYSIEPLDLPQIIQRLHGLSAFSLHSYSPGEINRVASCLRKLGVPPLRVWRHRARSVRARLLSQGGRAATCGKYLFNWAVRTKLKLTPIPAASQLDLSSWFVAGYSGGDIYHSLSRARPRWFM

SMILES	EC50 (HCV replicon cells)	IC50 (HCV NS5B)
COc1ccc2c(c1)C1CC1(C(=O)N1C[C@H]3C[C@@H]1CN3C(=O)OC(C)(C)C)Cn1c-2c(C2CCCCC2)c2ccc(C(=O)NS(=O)(=O)N3CCC3)cc21 (some centres unmarked)	2.4 to 500 nM	2.4 to 500 nM
COc1ccc2c(c1)C1CC1(C(=O)N1CCN3CCC1CC3)Cn1c-2c(C2CCCCC2)c2ccc(C(=O)NS(=O)(=O)N3CCN(C)CC3)cc21 (centres unmarked)	2.4 to 500 nM	2.4 to 500 nM
COc1ccc2c(c1)C1CC1(C(=O)N1CC3CCC1CN3)Cn1c-2c(C2CCCCC2)c2ccc(C(=O)NS(=O)(=O)CCC(F)(F)F)cc21 (centres unmarked)	> 1000 nM	2.4 to 500 nM
COc1ccc2c(c1)C1CC1(C(=O)N1C3COC[C@@H]1CN(C)C3)Cn1c-2c(C2CCCCC2)c2ccc(C(=O)NS(=O)(=O)C3CCCCC3)cc21 (some centres unmarked)	2.4 to 500 nM	2.4 to 500 nM
COc1ccc2c(c1)C1CC1(C(=O)N1C[C@@H]3C[C@H]1CN3C)Cn1c-2c(C2CCCCC2)c2ccc(C(=O)NS(C)(=O)=O)cc21 (some centres unmarked)	2.4 to 500 nM	2.4 to 500 nM
COc1ccc2c(c1)[C@@H]1C[C@]1(C(=O)N1CC3CC1CN3C)Cn1c-2c(C2CCCCC2)c2ccc(C(=O)NS(=O)(=O)N(C)C)cc21 (some centres unmarked)	2.4 to 500 nM	< 20 nM
COc1ccc2c(c1)C1CC1(C(=O)N1CC3CN(C)CC(C1)N3C)Cn1c-2c(C2CCCCC2)c2ccc(C(=O)NS(=O)(=O)N(C)C)cc21 (centres unmarked)	2.4 to 500 nM	2.4 to 500 nM
COc1ccc2c(c1)C1CC1(C(=O)N1C3CC1CN(Cc1ccccc1)C3)Cn1c-2c(C2CCCCC2)c2ccc(C(=O)NS(=O)(=O)C(C)C)cc21 (centres unmarked)	2.4 to 500 nM	2.4 to 500 nM
COc1ccc2c(c1)C1CC1(C(=O)N1C3CC1CN(C)C3)Cn1c-2c(C2CCCCC2)c2ccc(C(=O)NS(=O)(=O)CC3CC3)cc21 (centres unmarked)	2.4 to 500 nM	2.4 to 500 nM
COc1ccc2c(c1)C1CC1(C(=O)N1CCN3CCC1CC3)Cn1c-2c(C2CCCCC2)c2ccc(C(=O)NS(=O)(=O)N3CCC3)cc21 (centres unmarked)	2.4 to 500 nM	2.4 to 500 nM
COc1ccc2c(c1)C1CC1(S(=O)(=O)N1C3CC1CN(C)C3)Cn1c-2c(C2CCCCC2)c2ccc(C(=O)NS(=O)(=O)N3CCOCC3)cc21 (centres unmarked)	2.4 to 500 nM	2.4 to 500 nM
COc1ccc2c(c1)C1CC1(C(=O)N1C[C@H]3C[C@@H]1CN3CC(C)C)Cn1c-2c(C2CCCCC2)c2ccc(C(=O)NS(=O)(=O)N3CCC3)cc21 (some centres unmarked)	2.4 to 500 nM	2.4 to 500 nM
COc1ccc2c(c1)C1CC1(C(=O)N1C3CCCC1CN(C)C3)Cn1c-2c(C2CCCCC2)c2ccc(C(=O)NS(=O)(=O)C(C)C)cc21 (centres unmarked)	2.4 to 500 nM	2.4 to 500 nM

Reference: patent US7547690B2, “Compounds for the treatment of Hepatitis C” (Bristol-Myers Squibb Company, priority 2007, dated 2009)
